Data: patent publication US20240131168A1, “NAPHTHALENE RING-CONTAINING COMPOUND, PHARMACEUTICAL COMPOSITION CONTAINING SAME, AND USE THEREOF” (JIANGSU YAHONG MEDITECH CO., LTD., priority 2021, published 2024)
pIC50: −log10 of the molar value.

Legend:
Format in all cases: cell-based
MCF-7 = assay: CellTiter-Glo cell proliferation inhibition, MCF-7 (Effect Example 2); settings: Homo sapiens, MCF7, 144 h, MCF-7 (CTG), 6 days, starting concentration 10 μM; for inhibition at up to 10 µM: read-out: IH % max (maximum inhibition percentage)
How it was run: (§1)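 MCF-7, TamR-MCF-7, and CRISPR-edited MCF-7 ER D538G or Y537S cells were seeded at 1,000 or 2,000 cells/well in EMEM and cultured 24 h. They were then exposed to a 4-fold, 10-point series (top 10 µM before addition to wells) for 6 days or 72 h at 37 °C. CellTiter-Glo luminescence gave IC50 and maximum % inhibition.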

TamR-MCF-7 = assay: CellTiter-Glo cell proliferation inhibition, TamR-MCF-7; settings: 144 h, TamR-MCF-7 (CTG), 6 days, starting concentration 10 μM; for inhibition at up to 10 µM: read-out: IH % max (maximum inhibition percentage)
Source text: (§2) 1. Cell line • (1) Breast cancer cell lines and their culture media: • MCF-7 (ATCC; Cat. No.: HTB-22), a Luminal A breast cancer cell; • TamR-MCF-7 (ATCC; Cat. No.: CRL-3435), a breast cancer cell; • MCF-7 ER^D538G: a Luminal A breast cancer cell obtained by constructing MCF-7 (ATCC; Cat. No.: HTB-22) using CRISPR-Cas9 gene editing technology; • MCF-7 ER^Y537S: a Luminal A breast cancer cell obtained by constructing MCF-7 (ATCC; Cat. No.: HTB-22) using CRISPR-Cas9 gene editing technology; • MDA-MB-231: (manufacturer: Nanjing CoBioer Biosciences Co., Ltd.), a triple-negative breast cancer cell; • MDA-MB-468: (manufacturer: Nanjing CoBioer Biosciences Co., Ltd.), a triple-negative breast cancer cell.
(§3) Herein, the culture medium of MCF-7, TamR-MCF-7, MCF-7 ER^D538G, and MCF-7 ER^Y537S was EMEM; • the culture medium of MDA-MB-231 and MDA-MB-468 was DMEM.
(§4) 2. Reagents • Culture medium EMEM (Gibco, 1964507) • Culture medium DMEM (Gibco, 12430-054) • Fetal bovine serum (Gibco, 10091148) • Penicillin-streptomycin double antibody (Gibco, S110JV) • DPBS (Gibco, 14190-144) • CellTiter-Glo® assay kit (Promega, G7573) • Trypsin (0.25%) (Gibco, 25200-056) • DMSO (Sigma, D2650)
(§5) 3. Instruments • Biosafety cabinet (AIRTECH, BSC-1300A II) • Automated cell counter (Life Technologies, countess II) • Multifunctional microplate reader (Biotek, H1FM) • Orbital shaker (Hangzhou Allsheng Instruments Co., Ltd., OS-100) • XLFIT 5.3 (Inforstack Shanghai Co., Ltd.)
(§6) For this test method, the following experiments were performed in a biosafety cabinet, with the specific steps as follows: • (1) Cells were inoculated in a 96-well plate. One day later, the previous culture medium was poured off, 5 mL of DPBS was added to wash the cells, and then DPBS was pipetted and discarded. An appropriate amount of trypsin was then added. The plate was digested in a 37° C., 5% CO2 cell incubator for about 2 to 5 minutes and then taken out. Anew corresponding culture medium was added, and pipetted up and down to resuspend the cells evenly. The cells were then counted using an automated cell counter. • (2) Each cell was inoculated in columns 1 to 11 of a 96-well plate (Corning, Cat. No.: 3610) at a density of 1,000 or 2,000 cells per well in 100 μL of culture medium, and 100 μL of the corresponding culture medium without cells was added to the wells in column 12. The plate was then placed in a 37° C., 5% CO2 incubator for 24 hours. • (3) The compound of the present disclosure and the control drug fulvestrant (Selleck; Cat. No.: S1191) were then 4-fold serially diluted to 10 dose points starting at 10 μM. 10 μL of the serially diluted compound was pipetted and added to 100 μL of cells in columns 1 to 10, and 10 μL of the corresponding culture medium containing 0.33 v % DMSO was added to both columns 11 and 12. The plate was incubated in a 37° C., 5% CO2 incubator for 6 days or 72 hours (Note: column 11 was used as a MAX well with cells but without compound; column 12 was used as a MIN well without cells […]). • (4) The cell viability detection reagent in the CellTiter-Glo® assay kit was then added to the 96-well plate at 50 μL per well according to the instructions, and shaken on an orbital shaker in the dark for 5 to 10 minutes. The cell viability was then measured using a multifunctional microplate reader. Finally, the inhibition of cell proliferation by the compound of the present disclosure was plotted by XLFIT software, and the IC50 value (half inhibitory concentration) and the IH % max (maximum inhibition percentage) of the compound of the present disclosure were calculated.

MCF-7 ER^D538G = assay: CellTiter-Glo cell proliferation inhibition, MCF-7 ER^D538G; settings: Homo sapiens, MCF7, 144 h, MCF-7 ER^D538G (CTG), 6 days, starting concentration 10 μM; for inhibition at up to 10 µM: read-out: IH % max (maximum inhibition percentage)
How it was run: as §1

MCF-7 ER^Y537S = assay: CellTiter-Glo cell proliferation inhibition, MCF-7 ER^Y537S; settings: Homo sapiens, MCF7, 144 h, MCF-7 ER^Y537S (CTG), 6 days, starting concentration 10 μM; for inhibition at up to 10 µM: read-out: IH % max (maximum inhibition percentage)
Source text: as §2, §3, §4, §5, §6

MDA-MB-231 = assay: CellTiter-Glo cell proliferation inhibition, MDA-MB-231; settings: Homo sapiens, 144 h, MDA-MB-231 (CTG), 6 days, starting concentration 10 μM; for inhibition at up to 10 µM: read-out: IH % max (maximum inhibition percentage)
Source text: as §2, §3, §4, §5, §6
Compounds D64 to D69 were tested for MDA-MB-231 (CTG) and MDA-MB-468 (CTG) with an incubation time of 72 hours in the incubator.

MDA-MB-468 = assay: CellTiter-Glo cell proliferation inhibition, MDA-MB-468; settings: Homo sapiens, 144 h, MDA-MB-468 (CTG), 6 days, starting concentration 10 μM; for inhibition at up to 10 µM: read-out: IH % max (maximum inhibition percentage)

Row | Compound | pIC50 (MCF-7) | pIC50 (TamR-MCF-7) | pIC50 (MCF-7 ER^D538G) | pIC50 (MCF-7 ER^Y537S) | pIC50 (MDA-MB-231) | pIC50 (MDA-MB-468) | inhibition at up to 10 µM (MCF-7) | inhibition at up to 10 µM (TamR-MCF-7) | inhibition at up to 10 µM (MCF-7 ER^D538G) | inhibition at up to 10 µM (MCF-7 ER^Y537S) | inhibition at up to 10 µM (MDA-MB-231) | inhibition at up to 10 µM (MDA-MB-468)
1 | CN(CCOCCN1CCN(c2ccc3c(c2)CN(C2CCC(=O)NC2=O)C3=O)CC1)CCOc1ccc(Oc2c(-c3ccc(S(C)(=O)=O)cc3)ccc3cc(O)ccc23)cc1 (stereo not drawn) [Compound D10, 3-(5-(4-(2-(2-((2-(4-((6-hydroxy-2-(4-(methylsulfonyl)phenyl)naphthalen-1-yl)oxy)phenoxy)ethyl)methylamino)ethoxy)ethyl)piperazin-1-yl)-1-oxoisoindolin-2-yl)piperidine-2,6-dione] |  |  |  |  |  |  | 40% | 36% | 67% | 54% | 38% | 68%
2 | CCN(CCNc1cccc2c1CN(C1CCC(=O)NC1=O)C2=O)CCOc1ccc(Oc2c(-c3ccc(S(C)(=O)=O)cc3)ccc3cc(O)ccc23)cc1 (stereo not drawn) [Compound D17, 3-(4-((2-(ethyl(2-(4-((6-hydroxy-2-(4-(methylsulfonyl)phenyl)naphthalen-1-yl)oxy)phenoxy)ethyl)amino)ethyl)amino)-1-oxoisoindolin-2-yl)piperidine-2,6-dione] |  |  |  |  |  |  | 58% | 39% | 86% | 77% | 87% | 
3 | CCN(CCOCCOc1cccc2c1C(=O)N(C1CCC(=O)NC1=O)C2=O)CCOc1ccc(Oc2c(-c3ccc(S(C)(=O)=O)cc3)ccc3cc(O)ccc23)cc1 (stereo not drawn) [Compound D18, 2-(2,6-dioxopiperidin-3-yl)-4-(2-(2-(ethyl(2-(4-((6-hydroxy-2-(4-(methylsulfonyl)phenyl)naphthalen-1-yl)oxy)phenoxy)ethyl)amino)ethoxy)ethoxy)isoindoline-1,3-dione] |  |  |  |  |  |  | 39% |  | 81% | 67% | 41% | 
4 | C[C@@H]1CN(CCOCC(=O)Nc2cccc3c2CN(C2CCC(=O)NC2=O)C3=O)[C@@H](C)CN1CCOc1ccc(Oc2c(-c3ccc(S(C)(=O)=O)cc3)ccc3cc(O)ccc23)cc1 (stereo partly drawn) [Compound D25, N-(2-(2,6-dioxopiperidin-3-yl)-1-oxoisoindolin-4-yl)-2-(2-((2S,5R)-4-(2-(4-((6-hydroxy-2-(4-(methylsulfonyl)phenyl)naphthalen-1-yl)oxy)phenoxy)ethyl)-2,5-dimethylpiperazin-1-yl)ethoxy)acetamide] |  |  |  |  |  |  | 62% |  | 86% | 59% | 53% | 96%

More lines, main results first:

Row | pIC50 (MCF-7) | pIC50 (TamR-MCF-7) | pIC50 (MCF-7 ER^D538G) | pIC50 (MCF-7 ER^Y537S) | pIC50 (MDA-MB-231) | pIC50 (MDA-MB-468) | Compound | inhibition at up to 10 µM (MCF-7) | inhibition at up to 10 µM (TamR-MCF-7) | inhibition at up to 10 µM (MCF-7 ER^D538G) | inhibition at up to 10 µM (MCF-7 ER^Y537S) | inhibition at up to 10 µM (MDA-MB-231) | inhibition at up to 10 µM (MDA-MB-468)
5 | 7.56 | 7.43 | 7.05 | 6.01 | 8.29 | 8.24 | CS(=O)(=O)c1ccc(-c2ccc3cc(O)ccc3c2Oc2ccc(OCCN3CCN(c4ccc5c(c4)CN(C4CCC(=O)NC4=O)C5=O)CC3)cc2)cc1 (stereo not drawn) [Compound D2, 3-(5-(4-(2-(4-((6-hydroxy-2-(4-(methylsulfonyl)phenyl)naphthalen-1-yl)oxy)phenoxy)ethyl)piperazin-1-yl)-1-oxoisoindolin-2-yl)piperidine-2,6-dione] | 100% | 94% | 93% | 80% | 100% | 99%
6 | 6.88 | 6.48 | 6.37 |  | 6.99 | 6.58 | CS(=O)(=O)c1ccc(-c2ccc3cc(O)ccc3c2Oc2ccc(OCCN3CCN(c4ccc5c(c4)C(=O)N(C4CCC(=O)NC4=O)C5=O)CC3)cc2)cc1 (stereo not drawn) [Compound D6, 2-(2,6-dioxopiperidin-3-yl)-5-(4-(2-(4-((6-hydroxy-2-(4-(methylsulfonyl)phenyl)naphthalen-1-yl)oxy)phenoxy)ethyl)piperazin-1-yl)isoindoline-1,3-dione] | 100% | 90% | 91% | 78% | 100% | 98%
7 |  |  | 6.64 |  |  |  | CCN(CCOCCOc1ccc2c(c1)C(=O)N(C1CCC(=O)NC1=O)C2=O)CCOc1ccc(Oc2c(-c3ccc(S(C)(=O)=O)cc3)ccc3cc(O)ccc23)cc1 (stereo not drawn) [Compound D23, 2-(2,6-dioxopiperidin-3-yl)-5-(2-(2-(ethyl(2-(4-((6-hydroxy-2-(4-(methylsulfonyl)phenyl)naphthalen-1-yl)oxy)phenoxy)ethyl)amino)ethoxy)ethoxy)isoindoline-1,3-dione] | 73% | 64% | 94% | 96% | 100% | 79%
8 |  |  | 6.35 |  |  |  | CCN(CCOCCOCCOc1ccc2c(c1)C(=O)N(C1CCC(=O)NC1=O)C2=O)CCOc1ccc(Oc2c(-c3ccc(S(C)(=O)=O)cc3)ccc3cc(O)ccc23)cc1 (stereo not drawn) [Compound D24, 2-(2,6-dioxopiperidin-3-yl)-5-(2-(2-(2-(ethyl(2-(4-((6-hydroxy-2-(4-(methylsulfonyl)phenyl)naphthalen-1-yl)oxy)phenoxy)ethyl)amino)ethoxy)ethoxy)ethoxy)isoindoline-1,3-dione] | 74% | 60% | 93% | 94% | 100% | 62%
9 |  |  | 6.08 |  |  |  | CCN(CCOCCOCC(=O)N1CCN(c2cccc3c2CN(C2CCC(=O)NC2=O)C3=O)CC1)CCOc1ccc(Oc2c(-c3ccc(S(C)(=O)=O)cc3)ccc3cc(O)ccc23)cc1 (stereo not drawn) [Compound D47] | 31% |  | 89% | 73% | 83% | 94%
